Experimental data: US20230029496A1, “AMINO ACID ALTERNATIVE CURING SYSTEM” (THE TEXAS A&M UNIVERSITY SYSTEM, priority 2019, published 2023)
Values joined by “and” are separate entries in the source; they are usually repeats but may differ in a detail not shown here. Equal entries are not always repeated. Where two headings read alike, the source gives them in different places. Marks after values point to notes of the source that are not given here.

Columns and labels:
[1] = tested on: nitric oxide synthase system
Experimental: After thermal processing and chilling according to USDA-FSIS Appendix A—Thermal processing (71° C.) and B—Cooling procedures (2° C.) guidelines, the frankfurters will be vacuum packaged and stored under refrigeration (2° C.) until analyzed at 0, 14, 28 and 56 days post manufacture.
The samples were analyzed for residual nitrite after deproteinization by sample preparation for amino acid analysis by HPLC.
Samples were vacuum packaged and refrigerated and evaluated on Day 1, 7, 14, 28 and 56 post manufacture. Differences between treatment and control samples will be determined using Tukey's Least Significant Difference procedure at P≤0.05 level. The experiment was replicated three times.

[2] = tested on: nitric oxide synthase system; conditions: beef; for Residual Nitrite, LSMean main effect of Temperature: L-arginine
Experimental: (§1) Fresh ground meat (beef, pork or poultry) was separated in ˜0.5 Kg batches and mixed with 2% salt and 10% added water. […] Each individual batch was mixed (1 min) in a food processor, removed for temperature and pH analyses and then placed into a jerky extruder tube. Approximately 25 g of sample were extruded into 50 mL centrifuge, then capped and labeled and placed into a controlled water batch and heated to a designated internal endpoint temperature (132, 158, or 165° F.).
(§2) Samples also contained 547 ppm sodium erythorbate, a cure accelerator (Phase I) and without sodium erythorbate (Phase II). Samples were placed into test tubes and heated in a controlled water bath to 132, 158 and 165° F. Samples were held in a 40° F. cooler for seven days then tested for residual nitrite. Residual nitrite was tested after deproteinization for amino acid analysis by HPLC. Determination of nitrite (UV/VIS Spectrophotometric Method) was used to detect any residual nitrite for best results in detecting minute amounts of nitrite. Residual nitrite levels were read in a 96 well plate reader at 540 nm.
(§3) Both phases of the experiment were designed as a factorial (concentration level and endpoint temperature) randomized complete block design with three replications. […] Least squares means were generated and Tukey's HSD used to determine significance at P≤0.05.

[3] = tested on: NOS system; assay: Residual nitrite in test beef frankfurters (Example 12); conditions: for Nitrite: 7 days of storage
Experimental: (§4) The remaining nonmeat ingredients were added (except the antimicrobial) and chopped at 2000 rpm for one minute. Protecta (sodium acetate antimicrobial) was added and the emulsion chopped at 4000 rpm for one minute. The emulsion was evacuated and placed into a vacuum assisted stuffer where each test emulsion was stuffed and twist linked into 22 mm cellulose casings weighing 40 g each. The frankfurter links were hung on smokehouse trucks, placed into a commercial smokehouse and thermally processed to 160° F. (Table 18).
(§5) After thermal processing and chilling (40° F.), the casings were peeled from the frankfurters and were vacuum packaged and stored under refrigerated conditions for residual nitrite and nitrosylation. […] This was done to determine if the L-arginine could the NOS system to generate sufficient NO for cure color development and residual nitrite for antioxidant and antimicrobial effect.

[4] = tested on: NOS system; assay: NO-heme, total heme, nitrosylation in test beef frankfurters (Example 12)
Experimental: as §4, §5

[5] = tested on: nitric oxide synthase system; conditions: poultry, Phase I, with 547 ppm sodium erythorbate
Experimental: as §1, §2, §3

[6] = 1000 ppm L-arginine with 547 ppm sodium erythorbate
[7] = 1000 ppm L-arginine, no cure accelerator
[8] = 5000 ppm L-arginine with 547 ppm sodium erythorbate
[9] = 5000 ppm L-arginine, no cure accelerator

**Q.** For `N=C(N)NCCC[C@H](N)C(=O)O` [L-arginine], which residual sodium nitrite ([1]; 3000 ppm L-arginine, Day 1) is on record?
**A.** 55.90

**Q.** And the residual sodium nitrite ([1]; 3000 ppm L-arginine, Day 7)?
**A.** 55.83

**Q.** What about the residual sodium nitrite ([1]; 3000 ppm L-arginine, Day 14) of the same compound?
**A.** 62.60

**Q.** What about the residual sodium nitrite ([1]; 3000 ppm L-arginine, Day 28) of the same compound?
**A.** 58.68

**Q.** What about the residual sodium nitrite ([1]; 4000 ppm L-arginine, Day 1) of the same compound?
**A.** 49.92

**Q.** What about the residual sodium nitrite ([1]; 4000 ppm L-arginine, Day 7) of the same compound?
**A.** 60.36

**Q.** What about the residual sodium nitrite ([1]; 4000 ppm L-arginine, Day 14) of the same compound?
**A.** 53.71

**Q.** And the residual sodium nitrite ([1]; 4000 ppm L-arginine, Day 28)?
**A.** 79.07

**Q.** What about the residual sodium nitrite ([1]; 5000 ppm L-arginine, Day 1) of the same compound?
**A.** 73.95

**Q.** And the residual sodium nitrite ([1]; 5000 ppm L-arginine, Day 7)?
**A.** 61.77

**Q.** What about the residual sodium nitrite ([1]; 5000 ppm L-arginine, Day 14) of the same compound?
**A.** 52.91

**Q.** What about the residual sodium nitrite ([1]; 5000 ppm L-arginine, Day 28) of the same compound?
**A.** 100.11

**Q.** What about the “Residual Nitrite, LSMean Conc × Temp” value ([2]; Phase I, with 547 ppm sodium erythorbate, 1000 ppm L-arginine, 132° F.) of the same compound?
**A.** 85.37 ppm

**Q.** What about the “Residual Nitrite, LSMean Conc × Temp” value ([2]; Phase I, with 547 ppm sodium erythorbate, 1000 ppm L-arginine, 158° F.) of the same compound?
**A.** 76.56 ppm

**Q.** What about the “Residual Nitrite, LSMean Conc × Temp” value ([2]; Phase I, with 547 ppm sodium erythorbate, 1000 ppm L-arginine, 165° F.) of the same compound?
**A.** 65.51 ppm

**Q.** And the “Residual Nitrite, LSMean Conc × Temp” value ([2]; Phase I, with 547 ppm sodium erythorbate, 2000 ppm L-arginine, 132° F.)?
**A.** 82.58 ppm

**Q.** What about the “Residual Nitrite, LSMean Conc × Temp” value ([2]; Phase I, with 547 ppm sodium erythorbate, 2000 ppm L-arginine, 158° F.) of the same compound?
**A.** 66.33 ppm

**Q.** What about the “Residual Nitrite, LSMean Conc × Temp” value ([2]; Phase I, with 547 ppm sodium erythorbate, 2000 ppm L-arginine, 165° F.) of the same compound?
**A.** 75.98 ppm

**Q.** And the “Residual Nitrite, LSMean Conc × Temp” value ([2]; Phase I, with 547 ppm sodium erythorbate, 3000 ppm L-arginine, 132° F.)?
**A.** 78.11 ppm

**Q.** And the “Residual Nitrite, LSMean Conc × Temp” value ([2]; Phase I, with 547 ppm sodium erythorbate, 3000 ppm L-arginine, 158° F.)?
**A.** 84.73 ppm

**Q.** What about the “Residual Nitrite, LSMean Conc × Temp” value ([2]; Phase I, with 547 ppm sodium erythorbate, 3000 ppm L-arginine, 165° F.) of the same compound?
**A.** 57.42 ppm

**Q.** And the “Residual Nitrite, LSMean Conc × Temp” value ([2]; Phase I, with 547 ppm sodium erythorbate, 4000 ppm L-arginine, 132° F.)?
**A.** 72.90 ppm

**Q.** And the “Residual Nitrite, LSMean Conc × Temp” value ([2]; Phase I, with 547 ppm sodium erythorbate, 4000 ppm L-arginine, 158° F.)?
**A.** 83.35 ppm

**Q.** What about the “Residual Nitrite, LSMean Conc × Temp” value ([2]; Phase I, with 547 ppm sodium erythorbate, 4000 ppm L-arginine, 165° F.) of the same compound?
**A.** 52.11 ppm

**Q.** What about the “Residual Nitrite, LSMean Conc × Temp” value ([2]; Phase I, with 547 ppm sodium erythorbate, 5000 ppm L-arginine, 132° F.) of the same compound?
**A.** 57.48 ppm

**Q.** And the “Residual Nitrite, LSMean Conc × Temp” value ([2]; Phase I, with 547 ppm sodium erythorbate, 5000 ppm L-arginine, 158° F.)?
**A.** 48.52 ppm

**Q.** And the “Residual Nitrite, LSMean Conc × Temp” value ([2]; Phase I, with 547 ppm sodium erythorbate, 5000 ppm L-arginine, 165° F.)?
**A.** 38.80 ppm

**Q.** What about the “Residual Nitrite, LSMean main effect of Concentration” value (“Residual Nitrite … of Concentration” for short) ([2]; Phase II, without 547 ppm sodium erythorbate, 1000 ppm L-arginine) of the same compound?
**A.** 107.03^a ppm and 107.03 ppm

**Q.** What about the “Residual Nitrite, LSMean Conc × Temp” value ([2]; Phase II, without 547 ppm sodium erythorbate, 1000 ppm L-arginine, 132° F.) of the same compound?
**A.** 110.31^a ppm

**Q.** What about the “Residual Nitrite, LSMean Conc × Temp” value ([2]; Phase II, without 547 ppm sodium erythorbate, 1000 ppm L-arginine, 158° F.) of the same compound?
**A.** 117.12^a ppm

**Q.** What about the “Residual Nitrite, LSMean Conc × Temp” value ([2]; Phase II, without 547 ppm sodium erythorbate, 1000 ppm L-arginine, 165° F.) of the same compound?
**A.** 93.64^abc ppm

**Q.** What about the “Residual Nitrite … of Concentration” value ([2]; Phase II, without 547 ppm sodium erythorbate, 2000 ppm L-arginine) of the same compound?
**A.** 105.44^a ppm and 105.44 ppm

**Q.** And the “Residual Nitrite, LSMean Conc × Temp” value ([2]; Phase II, without 547 ppm sodium erythorbate, 2000 ppm L-arginine, 132° F.)?
**A.** 101.25^abc ppm

**Q.** What about the “Residual Nitrite, LSMean Conc × Temp” value ([2]; Phase II, without 547 ppm sodium erythorbate, 2000 ppm L-arginine, 158° F.) of the same compound?
**A.** 96.50^abc ppm

**Q.** And the “Residual Nitrite, LSMean Conc × Temp” value ([2]; Phase II, without 547 ppm sodium erythorbate, 2000 ppm L-arginine, 165° F.)?
**A.** 118.58^a ppm

**Q.** What about the “Residual Nitrite … of Concentration” value ([2]; Phase II, without 547 ppm sodium erythorbate, 3000 ppm L-arginine) of the same compound?
**A.** 102.80^a ppm and 102.80 ppm

**Q.** What about the “Residual Nitrite, LSMean Conc × Temp” value ([2]; Phase II, without 547 ppm sodium erythorbate, 3000 ppm L-arginine, 132° F.) of the same compound?
**A.** 107.12^ab ppm

**Q.** And the “Residual Nitrite, LSMean Conc × Temp” value ([2]; Phase II, without 547 ppm sodium erythorbate, 3000 ppm L-arginine, 158° F.)?
**A.** 111.73^a ppm

**Q.** What about the “Residual Nitrite, LSMean Conc × Temp” value ([2]; Phase II, without 547 ppm sodium erythorbate, 3000 ppm L-arginine, 165° F.) of the same compound?
**A.** 89.54^abc ppm

**Q.** What about the “Residual Nitrite … of Concentration” value ([2]; Phase II, without 547 ppm sodium erythorbate, 4000 ppm L-arginine) of the same compound?
**A.** 90.87^a ppm and 90.87 ppm

**Q.** And the “Residual Nitrite, LSMean Conc × Temp” value ([2]; Phase II, without 547 ppm sodium erythorbate, 4000 ppm L-arginine, 132° F.)?
**A.** 101.77^ab ppm

**Q.** And the “Residual Nitrite, LSMean Conc × Temp” value ([2]; Phase II, without 547 ppm sodium erythorbate, 4000 ppm L-arginine, 158° F.)?
**A.** 113.35^a ppm

**Q.** And the “Residual Nitrite, LSMean Conc × Temp” value ([2]; Phase II, without 547 ppm sodium erythorbate, 4000 ppm L-arginine, 165° F.)?
**A.** 57.51^bcd ppm

**Q.** What about the “Residual Nitrite … of Concentration” value ([2]; Phase II, without 547 ppm sodium erythorbate, 5000 ppm L-arginine) of the same compound?
**A.** 40.23^b ppm and 40.23 ppm

**Q.** And the “Residual Nitrite, LSMean Conc × Temp” value ([2]; Phase II, without 547 ppm sodium erythorbate, 5000 ppm L-arginine, 132° F.)?
**A.** 52.68^cd ppm

**Q.** What about the “Residual Nitrite, LSMean Conc × Temp” value ([2]; Phase II, without 547 ppm sodium erythorbate, 5000 ppm L-arginine, 158° F.) of the same compound?
**A.** 37.81^d ppm

**Q.** And the “Residual Nitrite, LSMean Conc × Temp” value ([2]; Phase II, without 547 ppm sodium erythorbate, 5000 ppm L-arginine, 165° F.)?
**A.** 30.19^d ppm

**Q.** What about the “Residual Nitrite, LSMean main effect of Temperature” value (“Residual Nitrite … of Temperature” below) ([2]; Phase II, without 547 ppm sodium erythorbate, 132° F.) of the same compound?
**A.** 95.63^a ppm and 95.63 ppm

**Q.** And the “Residual Nitrite … of Temperature” value ([2]; Phase II, without 547 ppm sodium erythorbate, 158° F.)?
**A.** 95.30^a ppm and 95.30 ppm

**Q.** And the “Residual Nitrite … of Temperature” value ([2]; Phase II, without 547 ppm sodium erythorbate, 165° F.)?
**A.** 77.89^b ppm and 77.89 ppm

**Q.** And the “water activity (Aw)” value (3000 ppm L-arginine, Day 1)?
**A.** 0.979

**Q.** And the “water activity (Aw)” value (3000 ppm L-arginine, Day 7)?
**A.** 0.978

**Q.** What about the “water activity (Aw)” value (3000 ppm L-arginine, Day 14) of the same compound?
**A.** 0.976

**Q.** And the “water activity (Aw)” value (3000 ppm L-arginine, Day 28)?
**A.** 0.982

**Q.** What about the “water activity (Aw)” value (4000 ppm L-arginine, Day 1) of the same compound?
**A.** 0.979

**Q.** And the “water activity (Aw)” value (4000 ppm L-arginine, Day 7)?
**A.** 0.982

**Q.** What about the “water activity (Aw)” value (4000 ppm L-arginine, Day 14) of the same compound?
**A.** 0.975

**Q.** What about the “water activity (Aw)” value (4000 ppm L-arginine, Day 28) of the same compound?
**A.** 0.975

**Q.** What about the “water activity (Aw)” value (5000 ppm L-arginine, Day 1) of the same compound?
**A.** 0.982

**Q.** What about the “water activity (Aw)” value (5000 ppm L-arginine, Day 7) of the same compound?
**A.** 0.957

**Q.** And the “water activity (Aw)” value (5000 ppm L-arginine, Day 14)?
**A.** 0.972

**Q.** What about the “water activity (Aw)” value (5000 ppm L-arginine, Day 28) of the same compound?
**A.** 0.976

**Q.** And the Nitrite [3, 6]?
**A.** 13 ppm and 13.43^bc ppm

**Q.** What about the Nitrite [3, 7] of the same compound?
**A.** 8.02^d ppm

**Q.** What about the Nitrite [3, 8] of the same compound?
**A.** 16 ppm and 15.87^b ppm

**Q.** And the Nitrite [3, 9]?
**A.** 10.64^cd ppm

**Q.** And the residual nitrite levels ([3]; range over L-arginine treated frankfurters after 7 days of storage)?
**A.** 8.02 to 15.87 ppm

**Q.** And the NO-Heme [4, 6]?
**A.** 23.59^ab ppm

**Q.** And the Nitrosylation [4, 6]?
**A.** 59.68^a %

**Q.** And the “Total Heme” value [4, 6]?
**A.** 40.35^a ppm

**Q.** What about the NO-Heme [4, 7] of the same compound?
**A.** 17.79^b ppm

**Q.** And the Nitrosylation [4, 7]?
**A.** 43.64^a %

**Q.** What about the “Total Heme” value [4, 7] of the same compound?
**A.** 41.71^a ppm

**Q.** What about the NO-Heme [4, 8] of the same compound?
**A.** 28.32^a ppm

**Q.** And the Nitrosylation [4, 8]?
**A.** 55.59^a %

**Q.** And the “Total Heme” value [4, 8]?
**A.** 51.00^a ppm

**Q.** What about the NO-Heme [4, 9] of the same compound?
**A.** 27.94^a ppm

**Q.** What about the Nitrosylation [4, 9] of the same compound?
**A.** 54.26^a %

**Q.** What about the “Total Heme” value [4, 9] of the same compound?
**A.** 52.81^a ppm

**Q.** And the “Cure color (nitrosylation)” value ([4]; range over L-arginine frankfurters)?
**A.** 43.64 to 59.68%

**Q.** And the “Residual Nitrite … of Concentration” value ([5]; 1000 ppm L-arginine)?
**A.** 65.44^ab ppm and 65.44 ppm

**Q.** And the “Residual Nitrite, LSMean Conc × Temp” value ([5]; 1000 ppm L-arginine, 132° F.)?
**A.** 76.46^ab ppm

**Q.** What about the “Residual Nitrite, LSMean Conc × Temp” value ([5]; 1000 ppm L-arginine, 158° F.) of the same compound?
**A.** 60.52^abc ppm

**Q.** And the “Residual Nitrite, LSMean Conc × Temp” value ([5]; 1000 ppm L-arginine, 165° F.)?
**A.** 59.36^abc ppm

**Q.** What about the “Residual Nitrite … of Concentration” value ([5]; 2000 ppm L-arginine) of the same compound?
**A.** 72.28^a ppm and 72.28 ppm

**Q.** And the “Residual Nitrite, LSMean Conc × Temp” value ([5]; 2000 ppm L-arginine, 132° F.)?
**A.** 63.44^abc ppm
